A word on the residual activity: it is the signal under treatment as a percentage of the control signal.

This passage reports residual activity results from the kinase profiling compilation of Christmann-Franck et al. (2016).

In the experiment the test system is SGK1 (human), O00141 [S422D]. The experiment is described as follows: radiometric filter-binding kinase assay, Kinase HotSpot. Conditions: compound 0.5 µM; ATP 10 µM.
Sequence of SGK1 (human), O00141 [S422D] (O00141 whole entry S422D, looked up): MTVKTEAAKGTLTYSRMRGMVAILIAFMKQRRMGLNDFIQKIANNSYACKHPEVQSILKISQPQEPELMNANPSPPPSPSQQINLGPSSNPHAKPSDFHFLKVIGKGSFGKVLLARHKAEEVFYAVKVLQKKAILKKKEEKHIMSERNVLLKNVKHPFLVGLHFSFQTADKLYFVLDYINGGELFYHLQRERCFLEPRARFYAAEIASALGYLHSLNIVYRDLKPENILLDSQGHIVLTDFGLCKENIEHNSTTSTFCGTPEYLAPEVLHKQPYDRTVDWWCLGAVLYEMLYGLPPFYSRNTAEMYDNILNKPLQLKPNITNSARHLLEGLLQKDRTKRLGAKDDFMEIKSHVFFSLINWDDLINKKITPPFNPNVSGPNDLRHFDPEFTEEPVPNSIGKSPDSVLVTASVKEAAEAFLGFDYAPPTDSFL

`Cc1nc2cc3nc(-c4cccs4)cnc3cc2n1C`: the residual activity is 95.9%.

On to `Cc1ccc(NC(=O)c2ccc(CN3CCN(C)CC3)cc2)cc1Nc1nc(-c2cccnc2)cs1`, for which the residual activity amounted to 111%.

Regarding `COc1cc(Nc2c(C#N)cnc3cc(OCCCN4CCN(C)CC4)c(OC)cc23)c(Cl)cc1Cl`, the residual activity came to 126%.

For the molecule `CC[C@@H](CO)Nc1nc(NCc2ccccc2)c2ncn(C(C)C)c2n1`, the residual activity came out at 120%.

As to `COc1ccc(Cl)cc1NC(=O)Nc1cc(C)nc2ccccc12`, the residual activity worked out at 94.7%.

As to `COc1ccc2c(c1)c(C1=C(c3c[nH]c4ccccc34)C(=O)NC1=O)cn2CCCN(C)C`, the residual activity came out at 99.5%.

As to `c1ccc(-c2n[nH]c3c2oc2ccccc23)cc1`, the residual activity is 101%.

In the case of `CC#CC(=O)Nc1cc2c(Nc3ccc(F)c(Cl)c3)ncnc2cn1`, the residual activity was determined as 95.6%.

For the molecule `Nc1cccc(-c2cc3c(Oc4cccc(O)c4)ncnc3[nH]2)c1`, the residual activity was determined as 101%.

In the case of `CC(=O)c1ccc(N2CCOCC2)cc1O`, the residual activity turned out to be 97.2%.

Take `O=c1cc(-c2cccc3c2Sc2ccccc2S3)oc(N2CCOCC2)c1`: the residual activity came to 90.6%.

With `Oc1cccc(-c2nc(N3CCOCC3)c3oc4ncccc4c3n2)c1`, the residual activity was found to be 100%.

As for `Cc1cncc2cccc(S(=O)(=O)N3CCCN(C(=O)CN)C[C@H]3C)c12`, the residual activity worked out at 103%.

In the case of `O=C1NC(=O)c2c1c1c3ccccc3[nH]c1n1cncc21`, the residual activity was 69%.

Turning to `O=C(NC(NC(=S)Nc1ccc(F)c([N+](=O)[O-])c1)C(Cl)(Cl)Cl)C(c1ccccc1)c1ccccc1` (centres undefined), the residual activity is 93.1%.

As for `COc1ccc2c(c[n+](C)c3c4cc5c(cc4ccc23)OCO5)c1OC`, the residual activity stood at 118%.

In the case of `CCN1/C(=C/C(C)=O)Sc2ccc(OC)cc21`, the residual activity was determined as 121%.

As to `Nc1n[nH]c2nnc(-c3c(-c4ccccc4)nn4ccccc34)cc12`, the residual activity turned out to be 99.9%.

With `O=C(CCCc1ccc(-c2ccccc2F)cc1)Nc1ccc(O)cc1`, the residual activity is 103%.

Take `CCC(=O)Nc1ccc2ncnc(Nc3cccc(Br)c3)c2c1`: the residual activity worked out at 84.6%.

Regarding `Cc1ccc(Nc2nccc(N(C)c3ccc4c(C)n(C)nc4c3)n2)cc1S(N)(=O)=O`, the residual activity is 125%.

Regarding `CC(C)N(CCC(=O)c1ccc2ccccc2c1)Cc1ccccc1`, the residual activity turned out to be 101%.

Consider `Nc1nc(Nc2ccc(S(N)(=O)=O)cc2)nn1C(=O)c1c(F)cccc1F`, for which the residual activity turned out to be 93%.

For `COc1cc2ncnc(Nc3ccc(Oc4ccccc4)cc3)c2cc1OC`, the residual activity was determined as 103%.

Consider `O=C(O)/C=C/c1cc(Br)c(Br)c(Br)c1Br`, for which the residual activity was 76.7%.

As to `Nc1ncnc2c1c(-c1ccc(Oc3ccccc3)cc1)cn2C1CCCC1`, the residual activity is 103%.

Regarding `Fc1ccc(-c2nc3n(c2-c2ccncc2)CCS3)cc1`, the residual activity was determined as 100%.

For `CCOC(=O)c1c(C)[nH]c(/C=C2\C(=O)Nc3ccccc32)c1C`, the residual activity came out at 92%.

`O=C1NC(=O)C(c2c[nH]c3ccccc23)=C1c1c[nH]c2ccccc12`: the residual activity worked out at 105%.

As for `O=C1NC(=O)C(c2cn(CCCO)c3ncccc23)=C1c1cnccn1`, the residual activity is 91.2%.

Regarding `Cn1sc(=O)n(Cc2ccccc2)c1=O`, the residual activity was 94%.

Take `CN(C)S(=O)(=O)c1ccc2c(c1)/C(=C/c1cc3c([nH]1)CCCC3)C(=O)N2`: the residual activity was found to be 105%.

As for `CS(=O)c1ccc(-c2nc(-c3ccc(F)cc3)c(-c3ccncc3)[nH]2)cc1` (centres undefined), the residual activity is 97.3%.

Consider `Cn1c2ccccc2c2c3c(c4c5ccccc5n(CCC#N)c4c21)CNC3=O`, for which the residual activity was 79.1%.

On to `COc1cc2ncc(-c3ccccc3)nc2cc1OC`, for which the residual activity worked out at 88.5%.

Consider `CCN(CC)CCCCN1c2ccccc2Oc2ccc(Cl)cc21`, for which the residual activity came to 99.4%.

In the case of `CNc1cc2c(Nc3cccc(Br)c3)ncnc2cn1`, the residual activity was 94.4%.

Turning to `O=C(c1cc2cc(O)ccc2[nH]1)c1cc2cc(O)ccc2[nH]1`, the residual activity was 74.2%.

Regarding `Clc1ccc(Nc2nnc(Cc3ccncc3)c3ccccc23)cc1`, the residual activity came out at 121%.

Turning to `O=C1Nc2ccc(Br)cc2/C1=C\c1cc2c([nH]1)CCCC2`, the residual activity was 93.4%.

Regarding `COc1ccc2c(c1)/C(=C/c1cnc[nH]1)C(O)=N2`, the residual activity stood at 71.5%.

Turning to `N#CC(C#N)=C(N)/C(C#N)=C/c1ccc(O)cc1`, the residual activity was 96.1%.

Turning to `NC(=O)c1cccc(-c2cc(Nc3ccc(OC(F)(F)F)cc3)ncn2)c1`, the residual activity came to 101%.

Turning to `CC(C)c1nn(-c2c(Cl)cccc2Cl)c2nc(Cc3ccc(OCCO)cc3)nc(O)c12`, the residual activity was 118%.

Turning to `CC(C)n1cnc2c(Nc3cccc(Cl)c3)nc(NCCO)nc21`, the residual activity was found to be 115%.

Regarding `O=C1Nc2cc(Br)ccc2/C1=C1/Nc2ccccc2/C1=N\O`, the residual activity is 60.9%.

With `O=C1Nc2ccc(Cl)cc2/C1=C/c1cc(Cl)c(O)c(Cl)c1`, the residual activity turned out to be 91.3%.

Turning to `Oc1ccc(-c2nc(-c3ccc(F)cc3)c(-c3ccncc3)[nH]2)cc1`, the residual activity was 101%.

For `COc1cc2ncnc(Nc3ccc(OCc4ccccc4)cc3)c2cc1OC`, the residual activity was 103%.

For the molecule `O=c1cc(N2CCOCC2)oc2c1ccc1ccccc12`, the residual activity stood at 98%.

As for `Cc1cc2ncc(-c3ccccc3)nc2cc1C`, the residual activity was determined as 103%.

On to `CNC(=O)c1cc(Oc2ccc(NC(=O)Nc3ccc(Cl)c(C(F)(F)F)c3)cc2)ccn1`, for which the residual activity stood at 95.2%.

For `CC(=O)O/N=C1\C(=C2\C(=O)Nc3cc(Br)ccc32)Nc2ccccc21`, the residual activity was found to be 81.8%.

Take `O=C1Nc2ccccc2/C1=C1/Nc2ccccc2/C1=N\OCCC(O)CO` (centres undefined): the residual activity came to 51%.

Consider `CN(C)CCCn1cc(C2=C(c3c[nH]c4ccccc34)C(=O)NC2=O)c2ccccc21`, for which the residual activity stood at 48.6%.

Regarding `Cn1nc2c3c(cccc31)C(=O)c1ccccc1-2`, the residual activity came out at 94.8%.

`O=C1NC(=O)C(c2cn(CCCn3ccnc3)c3ccccc23)=C1Nc1ccccc1`: the residual activity stood at 74.9%.

For the molecule `CC(C)(C)c1nc2c3ccc(F)cc3c3c(=O)[nH]ccc3c2[nH]1`, the residual activity was 50.9%.

With `CCN(CC)C(=O)c1ccc(Nc2nc(OCC3CCCCC3)c3nc[nH]c3n2)cc1`, the residual activity stood at 84.7%.

With `CC(C)(C)c1cc(C=C(C#N)C#N)cc(Br)c1O`, the residual activity was determined as 95.3%.

In the case of `CCn1cnc2c(Nc3cccc(Cl)c3)nc(N[C@@H]3CCCC[C@@H]3N)nc21`, the residual activity came out at 120%.

Regarding `c1ccc2c(-c3ccncc3)c[nH]c2c1`, the residual activity is 93.8%.

In the case of `CCN(CC)CCNC(=O)c1c(C)[nH]c(/C=C2\C(=O)Nc3ccc(Cl)cc32)c1C`, the residual activity was 49.6%.

On to `N#Cc1c[nH]c2c[nH]/c(=N\Cc3cccnc3)cc2/c1=N\c1ccc(F)c(Cl)c1`, for which the residual activity amounted to 93.2%.

On to `CN([C@@H](Cc1ccc(OS(=O)(=O)c2cccc3cnccc23)cc1)C(=O)N1CCN(c2ccccc2)CC1)S(=O)(=O)c1cccc2cnccc12`, for which the residual activity is 105%.

Turning to `CC(C)[C@H](CO)Nc1nc(Nc2cc(N)cc(Cl)c2)c2ncn(C(C)C)c2n1`, the residual activity is 93.1%.

With `C#Cc1cccc(Nc2ncnc3cc(OCCOC)c(OCCOC)cc23)c1`, the residual activity was determined as 122%.

Turning to `NC(=O)c1ccc(N(C(N)=O)c2c(F)cccc2F)nc1-c1ccc(F)cc1F`, the residual activity amounted to 121%.

Turning to `Nc1nccc(-c2c(-c3ccc(F)cc3)ncn2C2CCNCC2)n1`, the residual activity amounted to 97.4%.

Take `c1ccc(-c2n[nH]cc2-c2ccnc3ccccc23)nc1`: the residual activity came out at 103%.

As to `O=C1NC(=O)/C(=C\c2ccc3nccnc3c2)S1`, the residual activity turned out to be 95%.

For `O=C1c2ccccc2-c2nc3nnnn3nc21`, the residual activity was determined as 67.2%.

For the molecule `COc1cc2nccc(Oc3ccc(NC(=S)NC(=O)c4ccccc4C)cc3)c2cc1OC`, the residual activity came to 101%.

`CCCC(=O)Oc1ccc2[nH]c(C(=O)c3cc4ccccc4[nH]3)cc2c1`: the residual activity is 97%.

With `COc1cc2ncnc(Nc3ccc(F)c(Cl)c3)c2cc1OCCCN1CCOCC1`, the residual activity worked out at 131%.

For the molecule `Cc1nc(-c2ccccc2)c(-c2ccncc2)o1`, the residual activity was determined as 99.3%.

In the case of `O=C1NC(=O)c2c1c1c3ccccc3n3c1c1c2c2ccccc2n1C1CCC3O1`, the residual activity was 23.8%.

In the case of `COc1cc2ncnc(Nc3cccc(Cl)c3)c2cc1OC`, the residual activity amounted to 91.3%.

`CSc1nc(-c2ccc(F)cc2)c(-c2ccnc(NC(C)c3ccccc3)c2)[nH]1` (centres undefined): the residual activity is 97.3%.

Regarding `O=C1Cc2c([nH]c3ccc(Br)cc23)-c2ccccc2N1`, the residual activity came to 107%.

Turning to `CN(C)C[C@H]1CCn2c(c(C3=C(c4cn(C)c5ccccc45)C(=O)NC3=O)c3ccccc32)C1`, the residual activity was 72.9%.

As for `CCCCc1c(-c2ccc(OC)cc2)[nH]c2nccnc12`, the residual activity came out at 88.4%.

Consider `O=C1Nc2ccccc2/C1=C1\Nc2ccccc2\C1=N/O`, for which the residual activity came to 69.1%.

With `O=C(Nc1ccc(Cl)cc1)c1ccccc1NCc1ccncc1`, the residual activity came out at 96%.

Regarding `CO[C@@H]1[C@H](N(C)C(=O)c2ccccc2)C[C@H]2O[C@]1(C)n1c3ccccc3c3c4c(c5c6ccccc6n2c5c31)C(=O)NC4`, the residual activity came out at 81.9%.

Turning to `N#C/C(=C(/N)Sc1ccc(N)cc1)c1ccccc1C(F)(F)F`, the residual activity came to 102%.

Regarding `COc1ccc(CNC(=O)Nc2ncc([N+](=O)[O-])s2)cc1`, the residual activity worked out at 105%.

For the molecule `Nc1ncnc2[nH]nc(Nc3ccc(F)cc3)c12`, the residual activity was 91.5%.

`O=C1NC(=O)/C(=C/c2ccc3c(c2)OC(F)(F)O3)S1`: the residual activity is 102%.

For the molecule `Ic1cccc(CSc2nnc(-c3ccncc3)o2)c1`, the residual activity worked out at 99%.

Turning to `COc1cc2ncnc(N3CCN(C(=O)Nc4ccc(Oc5ccccc5)cc4)CC3)c2cc1OC`, the residual activity was determined as 99.8%.

For the molecule `Cn1cnc2cc3c(Nc4cccc(Br)c4)ncnc3cc21`, the residual activity was determined as 115%.

With `Nc1nnc2[nH]c3ccccc3nc1-2`, the residual activity was 114%.

For `CN(C)c1ccc(/C=C2\C(=O)Nc3ccccc32)cc1`, the residual activity turned out to be 93.1%.
